Legend:
[1] = biological target: Glycogen synthase kinase-3 beta (Homo sapiens, UniProt P49841); assay: Inhibition of recombinant human GSK3beta […] assessed as reduction in human muscle glycogen synthase type 1 fragment phosphorylation using YRRAAVPPSPSLSRHSSPHQ(pS)EDE as substrate in presence of ATP incubated for 60 mins by ADP-Glo kinase assay
Homo sapiens [2] = species: Homo sapiens; assay: Antiplatelet activity in platelet rich plasma (unknown origin) assessed as inhibition of ADP-induced platelet aggregation incubated for 5 mins by aggregometer analysis; assay type: functional
Homo sapiens [3] = species: Homo sapiens; assay: Antiplatelet activity in platelet rich plasma (unknown origin) assessed as inhibition of collagen-induced platelet aggregation incubated for 5 mins by aggregometer analysis; assay type: functional
Peritoneal macrophage = assay: (§1) Cytotoxicity against mouse Peritoneal macrophages assessed as LDH release by LDH assay; assay type: toxicity, cell-based; details: peritoneal macrophage
Rattus norvegicus = assay: Antithrombotic activity FeCl3-induced carotid artery thrombosis rat model assessed as prolongation of artery occlusion time pretreated dosed IG for 2 hrs followed by 50% FeCl3 application; assay type: functional; details: po
Homo sapiens [4] = species: Homo sapiens; assay: cells; details: Platelet, Plasma, 5 min, read-out: INH
Description: Antiplatelet activity in platelet rich plasma (unknown origin) assessed as inhibition of ADP-induced platelet aggregation at 100 uM incubated for 5 mins by aggregometer analysis

Homo sapiens [5] = species: Homo sapiens; assay: cells; details: Platelet, Plasma, 5 min, read-out: INH; remark: listed apart in the source
Description: Antiplatelet activity in platelet rich plasma (unknown origin) assessed as inhibition of ADP-induced platelet aggregation at 10 uM incubated for 5 mins by aggregometer analysis

Homo sapiens [6] = species: Homo sapiens; assay: cells; details: Platelet, Plasma, 5 min, read-out: INH; remark: listed apart in the source
Description: Antiplatelet activity in platelet rich plasma (unknown origin) assessed as inhibition of ADP-induced platelet aggregation at 1 uM incubated for 5 mins by aggregometer analysis

[7] = as §1; assay type: toxicity, cell-based, Peritoneal macrophage; details: peritoneal macrophages

Glycogen synthase kinase-3 beta, sequence (P49841 whole entry, the tested form may be a part): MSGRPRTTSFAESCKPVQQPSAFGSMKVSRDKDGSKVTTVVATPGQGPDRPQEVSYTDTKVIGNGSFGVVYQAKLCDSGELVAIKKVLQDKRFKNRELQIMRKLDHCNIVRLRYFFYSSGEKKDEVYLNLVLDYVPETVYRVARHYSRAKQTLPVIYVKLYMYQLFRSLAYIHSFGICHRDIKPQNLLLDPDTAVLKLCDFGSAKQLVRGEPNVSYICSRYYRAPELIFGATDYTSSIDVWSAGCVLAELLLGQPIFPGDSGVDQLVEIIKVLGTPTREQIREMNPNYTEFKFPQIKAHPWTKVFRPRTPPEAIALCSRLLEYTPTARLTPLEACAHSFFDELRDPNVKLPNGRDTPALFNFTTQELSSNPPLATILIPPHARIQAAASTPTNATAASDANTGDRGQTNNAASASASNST

`COC(=O)Nc1ccc2c(c1)/C(=C\c1ccc([N+](=O)[O-])cc1)C(=O)N2` gave an IC50 [1] of 0.348 µM.
`Cn1cc(/C=C2/C(=O)Nc3ccccc32)cn1` showed an IC50 [1] of 13.5 µM.
For `CCOC(=O)c1[nH]ncc1/C=C1\C(=O)Nc2ccc([N+](=O)[O-])cc21`, the IC50 [1] was 1.77 µM.
Compound `COC(=O)Nc1ccc2c(c1)/C(=C\c1ccc(O)cc1)C(=O)N2` has an IC50 (Homo sapiens [2]; read-out: IC50) of 13.5 µM, an IC50 (Homo sapiens [3]; read-out: IC50) greater than 100 µM and a CC50 (Peritoneal macrophage) greater than 100 µM.
With `CN1C(=O)/C(=C/c2ccccn2)c2ccccc21` the IC50 [1] was greater than 50 µM.
In the case of `CC(=O)Nc1ccc2c(c1)/C(=C\c1ccc(O)cc1)C(=O)N2`, the IC50 [1] is reported as 34.4 µM.
With `O=C1Nc2ccccc2/C1=C\c1ccc(O)cc1` the IC50 [1] was greater than 50 µM.
For `CC(=O)Nc1ccc2c(c1)/C(=C\c1cccnc1)C(=O)N2`, the IC50 [1] was greater than 50 µM.
Compound `O=C1Nc2ccc([N+](=O)[O-])cc2/C1=C\c1cccnc1` has an IC50 [1] of 20 µM.
With `CC(=O)Oc1ccccc1C(=O)O` [ASPIRIN] the IC50 (Homo sapiens [2]) was 81 µM, the IC50 (Homo sapiens [3]) was 4.5 µM and the ED50 (Rattus norvegicus) was 137 mg/kg.
In the case of `Cc1ccc(C(=O)CC2(O)C(=O)Nc3ccc(NC(=O)c4ccccc4)cc32)cc1` (stereo not given), the IC50 [1] is reported as 1.72 µM.
`Nc1ccc2c(c1)C(Cc1ccccn1)C(=O)N2` (stereo not given) showed an IC50 [1] greater than 50 µM.
For `O=C1Nc2ccc(NC(=O)c3ccccc3)cc2/C1=C\c1ccc(O)cc1`, the IC50 (Homo sapiens [2]; read-out: IC50) was 18.5 µM, the IC50 (Homo sapiens [3]; read-out: IC50) was 46.7 µM and the CC50 (Peritoneal macrophage) was greater than 100 µM. The inhibition at 100 µM (Homo sapiens [4]) was 72.3%, the inhibition at 10 µM (Homo sapiens [5]) was 37.2% and the inhibition at 1 µM (Homo sapiens [6]) was 19.3%.
For `Cc1n[nH]cc1/C=C1/C(=O)Nc2ccccc21`, the IC50 [1] was 5.68 µM.
`O=C1Nc2ccccc2C12CC2c1ccccn1` (stereo not given) gave an IC50 (Homo sapiens [2]; read-out: IC50) of 8.9 µM, an IC50 (Homo sapiens [3]; read-out: IC50) of 37 µM and a CC50 (Peritoneal macrophage) greater than 100 µM.
`O=C1Nc2ccccc2C1Cc1cccnc1` (stereo not given) gave an IC50 [1] of 0.0042 µM, an IC50 (Homo sapiens [3]; read-out: IC50) of 3 µM and a CC50 [7] greater than 100 µM. The ED50 (Rattus norvegicus) was 7.3 mg/kg, the inhibition at 100 µM (Homo sapiens [4]) was 75.6% and the inhibition at 10 µM (Homo sapiens [5]) was 55.6%. It also gave an inhibition at 1 µM (Homo sapiens [6]) of 26.5%.
For `COCC(=O)c1[nH]ncc1/C=C1\C(=O)Nc2ccccc21`, the IC50 [1] was 6.72 µM.
`Nc1ccc(CC2C(=O)Nc3ccccc32)cc1` (stereo not given) gave an IC50 [1] of 50 µM.

Reference: ChEMBL document CHEMBL5257093, “3-Arylidene-2-oxindoles as GSK3β inhibitors and anti-thrombotic agents” (Bioorg Med Chem Lett, 2023)
